Source: ChEMBL document CHEMBL3507680, “University of Dundee, Gates Library screen for HepG2 cell viability”

Assay: Human HepG2 cell viability assay in 384 well format
Format: toxicity, cell-based
Set-up: dose 125 nL, time 70.5 hour; cytotoxicity at 70.5 h: concentration not given beside the values
Settings: HepG2 cells, read-out: Inhibition

Compound	cytotoxicity at 70.5 h [%]
CC(=O)Nc1nc(C2CCN(C(=O)C3CCC3)CC2)cs1	-5.93
COc1c(C)cnc(CN2CCCCC2CCN2CCOCC2)c1C (stereo not drawn)	-11.7
CNC(=O)COC1COC2(CCN(c3cnccn3)CC2)C1 (stereo not drawn)	4.72
COc1ccc(-n2nc(C(C)=O)c(C(C)=O)c2C)cc1Cl	17.1
O=C(Cc1cccs1)Nc1cnn(C2CCOC2)c1 (stereo not drawn)	40.6
NC(=O)NCCC(=O)N1CCC(c2cc(-c3ccccc3Cl)n[nH]2)CC1	-1.52
Cc1nn(C)c(=O)c2nn(-c3cccc(Cl)c3)c(C)c12	-14.1
CC1CCN(Cc2c(C(C)C)[nH]c3ncccc23)CC1	-8.35
N#Cc1cnc2cc(F)cc(F)c2c1NC1CCN(CC(N)=O)CC1	-4.4
CC(C)C[C@@H]1N[C@H](C(=O)NC(C)C)Cc2c[nH]c3cccc1c23	-1.24
O=C([C@H]1C[C@H]2OCC[C@H]2N(CC2CCOCC2)C1)N1CCCC1	-2.01
COCC(=O)N1CC(C(=O)NCC2CC2)C2(CCOCC2)C1 (stereo not drawn)	-3.19
Cc1cc(C)c2nc(C3CC3)cc(C(=O)N3CCCC3C(N)=O)c2c1 (stereo not drawn)	26.2
CCCn1nc(C)c(C(=O)N(C)[C@@H]2CC[C@@H](N3CCCC3)[C@@H]2O)c1C	-5.14
O=C(NCC1CCOC1)Nc1ccc(Oc2ccc(F)cc2)nc1 (stereo not drawn)	15.8
Cc1nn2c(NCC(N)=O)cc(-c3ccccc3)nc2c1C	15.2
Cc1cccc(-c2nc(CN3CC(n4nc(C)cc4C)C3)no2)c1	-4.09
CS(=O)(=O)NCc1cnc2n1CCN(Cc1cccs1)CC2	-4.2
CCN(CC)CC(=O)N1CCN(CCc2ccncc2)CC1	-9.33
CN1C[C@]2(CC[C@@H](C(=O)N3CCOCC3)CC2)Oc2ccccc2C1=O	-5.13
CC1CCN(C(=O)Cc2ccc(S(=O)(=O)C(F)F)cc2)CC1	-11
CCCc1nc(C)cc(N2CCNC(C(=O)NC3CC3)C2)n1 (stereo not drawn)	2.45
Cc1noc([C@@H]2CCCN2C(=O)C2CCN(CC(N)=O)CC2)n1	-5.63

Compound	cytotoxicity at 70.5 h [%]
COc1cc(/C=C/c2ncc(C(=O)O)s2)cc(OC)c1	14.7
COc1cc2c(cc1-c1nc3c(cnn3C(C)C(C)C)[nH]1)OCO2 (stereo not drawn)	-0.404
O=C(O)c1cnc2c(Br)cccc2c1O	-5.88
O=C(c1cscn1)N1CCc2ncc(Cn3cncn3)n2CC1	-6.09
CN(C)C(=O)[C@@H]1C[C@@H]2CCN(Cc3nccs3)C[C@@H]2O1	-6.01
Cn1cc(N2CC3(CCN(S(=O)(=O)C4CC4)C3)CC2=O)cn1 (stereo not drawn)	-1.83
CN(Cc1nccn1C)C(CO)c1cccc(Br)c1 (stereo not drawn)	-28.6
CCCNC(=O)NC(=O)CNc1c(F)cccc1N1CCCC1	-17.8
COc1ccc(CCN(C)C(C(=O)O)c2ccc(F)c(C)c2)cc1OC (stereo not drawn)	9.05
CCCc1cc(=O)[nH]c2nnc(SCC(=O)OCC)n12	-9.96
Cc1ccc(CNC(=O)N2CCOCC2C2CC2)cc1F (stereo not drawn)	-8.34
Cc1cc(C(=O)N2CCCC(n3cncn3)C2)on1 (stereo not drawn)	26.7
CNC(=O)c1ccc(OC2CCN(S(C)(=O)=O)CC2)c(Cl)c1	3.83
CC1=Nc2c(c(=O)[nH]n2C2CCCC2)C(c2ccc(O)cc2)S1 (stereo not drawn)	-22.9
CC1CCC(O)(CN2CCN(CCNC(=O)C3CCC3)CC2)CC1 (stereo not drawn)	-14.6
Cc1nc(-c2cccc(C(=O)O)c2)c[nH]1	15.3
CC(C)(C#N)c1ccc(NS(=O)(=O)CC2CCCCO2)cc1 (stereo not drawn)	-0.0974
Cc1ccccc1C(CC(=O)NCc1n[nH]c(N)n1)c1ccccc1 (stereo not drawn)	-4.71
Cc1nccc(NCc2cncc3c2CCN(CC2CCOC2)C3)n1 (stereo not drawn)	5.73
Clc1ccc(C2(NCc3noc(C4CC4)n3)CCCC2)cc1	-0.425
CCc1nc(C)sc1CN1CCc2[nH]nc(-c3ccc(F)c(F)c3)c2C1	-5.32
CC1Oc2c(cccc2C(=O)N2CCN(CC(C)(C)O)CC2)NC1=O (stereo not drawn)	-10.7
Cc1ccccc1CNC(=O)CN1CCN(Cc2nccn2C)CC1	-20.5

Compound	cytotoxicity at 70.5 h [%]
O=C(Nc1ccc(Cl)cn1)C1CCCN(CCc2ccccn2)C1 (stereo not drawn)	14.5
Cc1cnc(N2CC3(CCN(S(=O)(=O)C4CC4)C3)C2)nc1	-11.5
Cc1ccc(C(=O)NCCNC(=O)c2cncnc2C(C)C)cc1F	-7.29
COc1cccc(OCC2CCCN(C(=O)c3cnc(C)nc3O)C2)c1 (stereo not drawn)	-9.18
O=C(CCc1ccsc1)NC1CCN(c2cccc(F)c2)CC1	4.39
Cc1cc(C(=O)N2CC[C@@]3(C[C@@H](NS(C)(=O)=O)CCO3)C2)no1	-4.95
Cc1occc1CNC(=O)Nc1ccc2nc(N3CCOCC3)oc2c1	-9.42
O=C(CN1CCC(c2ccnn2CCO)CC1)NCc1cccs1	18.4
Cc1cccnc1CSCCCNS(C)(=O)=O	-5.33
CCC(=O)NCc1cc(Br)ccc1OC(F)F	-6
O=C(c1ccc(O)nc1)N1CCc2ccc(O)cc2C1	-13
Cc1ccc(NC2(C(=O)NCCCN)CCCC2)cc1	-8.06
Cc1nccn1C1CCCN(C(=O)Cn2ccc(=O)n(C)c2=O)C1 (stereo not drawn)	-14.6
Cc1ccc(NC(C)C(=O)NCc2cccs2)cc1Cl (stereo not drawn)	5.9
CN(Cc1ccco1)C[C@H]1OC[C@@H]2CCN(Cc3ccncc3)C[C@@H]21	15.7
O=C(CCOCc1ccccc1)N1CCCC1c1noc(C2CC2)n1 (stereo not drawn)	-2.09
COc1ccc(C(=O)N2CCOC(Cc3cccc(C(F)(F)F)c3)C2)o1 (stereo not drawn)	-7.8
Cc1cc(-n2cccn2)ccc1CN1CCC(O)(CN2CCCCC2)C1 (stereo not drawn)	1.06
COCC1CC2(CCN(Cc3cccnc3)CC2)CN1C(C)C (stereo not drawn)	-7.91
CC1=NC2(CCN(CC(C)c3ccccc3)CC2)C(=O)N1 (stereo not drawn)	-8.98
CCN1C[C@H]2C3(CCN(S(C)(=O)=O)CC3)CC[C@@]2(C(=O)N(C)C)C1	-9.68
O=C(c1cscn1)N1CC[C@@H]2[C@@H]1CCN2CC1CCOC1 (stereo partly drawn)	-1.02
CN(C)c1ccc(NC(=O)NCc2cccnc2N(C)C)cn1	-8.32

Compound	cytotoxicity at 70.5 h [%]
CS(=O)(=O)N[C@@H]1CN(C(=O)c2ccccn2)[C@@H]2CCCO[C@@H]21	-5.15
O=C(Nc1cccc(CN2CCOC2=O)c1)N1CCCC1	-6.57
c1nc2onc(C3CC3)c2cc1-c1nnc(C2CC2)o1	1.7
COc1cc(N2C[C@H]3CN(Cc4ccccn4)C[C@H]3C2)ncn1	-4.15
c1ncc2c(n1)CN(Cc1cn3ccsc3n1)CC2	-4.44
Cc1ccc(CNCCN2CCOCC2)o1	8.67
Cc1cc(CN2C[C@@H]3COC[C@]3(CN(C)C)C2)no1	-6.11
CN1CC2(CCN(Cc3ncc[nH]3)CC2)CC1=O	-4.6
CN(CCO)Cc1nnc(C2CCN(CC(C)(C)C)CC2)n1C	-4.91
O=C(Cc1ccccc1Cl)N1CCCC(n2cncn2)C1 (stereo not drawn)	-7.27
Cc1cc(NC(=O)NC2CCN(C(C)C)CC2)c2ncccc2c1	-85.3
CN(C)[C@@H]1CCN(S(=O)(=O)C2CC2)[C@H]1Cc1ccccc1	1.77
CCCN(CCc1ccccn1)C(=O)CCc1cnn(C)c1	-10.1
CC(c1ccco1)N(C)C(=O)NCCOc1ccc(C#N)cc1 (stereo not drawn)	-8.15
Cc1ccc(F)c(OC2CCCN(c3cnn(C)c3)C2=O)c1 (stereo not drawn)	-3.77
CCC(CO)N(Cc1cccs1)C(=O)CNS(=O)(=O)c1cccs1 (stereo not drawn)	-4.61
OCCN(Cc1cccnc1)c1cnc2ccccc2n1	-4.32
CSCCC(O)C(=O)N1CCCN(Cc2cccnc2)CC1 (stereo not drawn)	-9.6
O=C(CNC(=O)c1ccoc1)NCCOc1ccc2c(c1)CCC2	-6.52
O=c1ccc2c(n1CC1CCOCC1)CCN(Cc1ccoc1)CC2	49.3
CC(CC(=O)NCCS(N)(=O)=O)C1CCCCC1 (stereo not drawn)	-9.82
Cc1ccc(CN(Cc2ccccn2)C(=O)CCC2CCCN(C)C2)s1 (stereo not drawn)	32.1
N#Cc1cccc(N2CC3(CCN(C(=O)C4CC=CC4)C3)CC2=O)c1 (stereo not drawn)	-9.81

Compound	cytotoxicity at 70.5 h [%]
CCS(=O)(=O)CCN(C)C(=O)NC(C)c1ccc(C)s1 (stereo not drawn)	-5.27
CCCc1nc(C)c(C(=O)Nc2cccc(C)n2)s1	23.8
O=C(C1=COCCO1)N1CC(Oc2nc3c(Cl)cccc3s2)C1	30.4
CCn1ccnc1CN1CCN(C(C)C(=O)NC2CCCC2)CC1 (stereo not drawn)	-4.1
Cc1cc(NC(=O)NCCCSc2nncn2C)no1	-11.7
Cc1cnn(C2(C(=O)O)CCN(c3ccncc3F)CC2)c1	-5.87
Cc1cc(N(C)C)nc(N2CCn3c(nnc3C3CC3)C2)n1	5.46
Cc1cccc(CN2C(=O)C[C@H]3[C@@H]2CCN3CC2CC2)n1	-2.5
CNS(=O)(=O)c1cccc(CNc2ccc(C#N)cn2)c1	-7.11
CN(c1ccncn1)C1CC2(CCN(C(=O)Cc3cccs3)C2)C1 (stereo not drawn)	-6.91
CC(C)c1nnc2n1CCN(CC(=O)Nc1nncs1)C2	-6.91
Cc1nc(COCC2CNCc3nccn3C2)cs1 (stereo not drawn)	7.13
CS(=O)(=O)NC[C@H]1OC[C@H]2CN(Cc3ccsc3)CC[C@H]21	2.09
CCS(=O)(=O)N1CCOC(CCCc2ccccc2)C1 (stereo not drawn)	5.87
COc1ccc(OC)c(NC(=O)CSc2ccc3nncn3n2)c1	-8.56
O=C(NC1CC1)c1cc2c(nc1O)CC(c1cccs1)CC2=O (stereo not drawn)	-11.9
Cn1nnn(-c2ccc(NS(=O)(=O)c3ccc(F)c(Cl)c3)cc2)c1=O	-2.9
CCC(NC(=O)c1ccco1)c1nc(C(F)(F)F)cs1 (stereo not drawn)	-6.77
c1cncc(Cc2nnc3n2CCN(CC2CCOC2)CC3)c1 (stereo not drawn)	-10.7
O=C(c1cnccn1)N1CCC2(CC1)CC(Oc1ccccc1)CO2 (stereo not drawn)	25.9
CN(CCOc1ccccc1)C(=O)Nc1cccn(C)c1=O	20.8
